Laboratory results as given in US20240246964A1 (Arbutus Biopharma Corporation, priority 2021, published 2024).
Read-outs that look alike come from different tables or passages of the source.

Tests used:
[1] = biological target: PD-L1 His protein / PD-1 Fc protein (Homo sapiens (Human), UniProt Q9NZQ7); test: HTRF Assay (PD-1/PD-L1 interaction); type: binding
[2] = biological target: human PD-L1 (Homo sapiens (Human), UniProt Q9NZQ7); test: T cell activation luciferase reporter cell culture system (T Cell Activation Assay); type: cell-based
[3] = luciferase reporter assay, PD-L1 aAPC/CHO-K1 cells with PD-1 effector Jurkat T cells

Chain of PD-L1 His protein / PD-1 Fc protein (Q9NZQ7 19-238): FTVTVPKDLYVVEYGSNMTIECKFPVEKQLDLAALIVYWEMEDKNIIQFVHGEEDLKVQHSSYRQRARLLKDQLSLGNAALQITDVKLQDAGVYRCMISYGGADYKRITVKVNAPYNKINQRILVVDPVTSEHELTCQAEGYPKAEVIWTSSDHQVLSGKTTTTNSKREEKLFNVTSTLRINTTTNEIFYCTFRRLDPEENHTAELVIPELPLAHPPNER
Chain of human PD-L1 (Q9NZQ7 19-290): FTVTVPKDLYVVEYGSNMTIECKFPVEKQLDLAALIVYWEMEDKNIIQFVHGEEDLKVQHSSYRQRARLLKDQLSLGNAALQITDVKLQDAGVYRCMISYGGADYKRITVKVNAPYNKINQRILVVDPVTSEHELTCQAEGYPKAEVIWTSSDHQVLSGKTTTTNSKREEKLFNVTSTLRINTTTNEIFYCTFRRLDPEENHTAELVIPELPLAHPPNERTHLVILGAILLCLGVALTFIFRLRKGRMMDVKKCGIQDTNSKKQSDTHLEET

Row | Compound | IC50 ([1]; PD-L1 His 6 nM, PD-1 Fc 6 nM) | EC50 [2, 3] | IC50 [1] | EC50 [2]
1 | COc1cc(-c2nccc(-c3cccc(-c4ccc(CNCCNC(C)=O)c(OC)n4)c3Cl)c2Cl)ccc1CNCCNC(C)=O | 0.00139 µM | 0.0702 µM | – | –
2 | COc1cc(-c2nccc(-c3cccc(-c4ccc(CN(C)C5CCN(C(C)=O)CC5)c(OC)n4)c3Cl)c2Cl)ccc1CNC1CCN(C(C)=O)CC1 | 0.00312 µM | 0.0491 µM | – | –
3 | 1-(6-((6-(2-Chloro-3-(3-chloro-2-(3-methoxy-4-((6-(2-methoxyacetyl)-2,6-diazaspiro[3.3]heptan-2-yl)methyl)phenyl)pyridin-4-yl)phenyl)-2-methoxypyridin-3-yl)methyl)-2,6-diazaspiro[3.3]heptan-2-yl)-2-methoxyethan-1-one [Example 594] | – | – | 0.00017 µM | 0.0337 µM
4 | 2-(4-(3-Chloro-4-(2-chloro-3-(5-methoxy-6-((7-oxo-2,6-diazaspiro[3.4]octan-2-yl)methyl)pyridin-3-yl)phenyl)pyridin-2-yl)-2-methoxybenzyl)-2,6-diazaspiro[3.4]octan-7-one [Example 566] | 0.00093 µM | 0.341 µM | – | –
5 | COc1nc(-c2cccc(-c3ccnc(-c4ccc5c(c4)CCCC5NC[C@@H]4CCC(=O)N4)c3Cl)c2Cl)ccc1CNC[C@@H]1CCC(=O)N1 (mixture of isomers) [Compound 112, (5S)-5-((((6-(2-chloro-3-(3-chloro-2-(5-((((S)-5-oxopyrrolidin-2-yl)methyl)amino)-5,6,7,8-tetrahydronaphthalen-2-yl)pyridin-4-yl)phenyl)-2-methoxypyridin-3-yl)methyl)amino)methyl)pyrrolidin-2-one] | 0.001 µM | 0.0505 µM | – | –
6 | COc1nc(-c2cccc(-c3ccnc(-c4ccc5c(c4)CCCC5NC[C@H](C)O)c3Cl)c2Cl)ccc1CNC[C@@H]1CCC(=O)N1 (mixture of isomers) [Compound 113, (5S)-5-((((6-(2-chloro-3-(3-chloro-2-(5-(((S)-2-hydroxypropyl)amino)-5,6,7,8-tetrahydronaphthalen-2-yl)pyridin-4-yl)phenyl)-2-methoxypyridin-3-yl)methyl)amino)methyl)pyrrolidin-2-one] | 0.0007 µM | 0.185 µM | – | –
7 | COc1cc(-c2nccc(-c3ccnc(-c4ccc(CNC[C@@H]5CCC(=O)N5)c(OC)c4)c3Cl)c2Cl)ccc1CNC[C@@H]1CCC(=O)N1 [Compound 4, (5S,5′S)-5,5′-(((((3,3′-dichloro-[4,4′-bipyridine]-2,2′-diyl)bis(2-methoxy-4,1-phenylene))bis(methylene))bis(azanediyl))bis(methylene))bis(pyrrolidin-2-one)] | 0.0083 µM | 0.0963 µM | – | –
8 | CN1CCNCc2ccc(-c3nccc(-c4cccc(-c5ccc6c(CNC[C@@H]7CCC(=O)N7)cn(C)c6n5)c4Cl)c3Cl)cc21 [Compound 9, (S)-5-((((6-(2-chloro-3-(3-chloro-2-(1-methyl-2,3,4,5-tetrahydro-1H-benzo[e][1,4]diazepin-8-yl)pyridin-4-yl)phenyl)-1-methyl-1H-pyrrolo[2,3-b]pyridin-3-yl)methyl)amino)methyl)pyrrolidin-2-one] | 0.0155 µM | 0.212 µM | – | –
9 | COc1cc(-c2nccc(-c3ccnc(-c4cc(F)c(CNC[C@@H]5CCC(=O)N5)c(OC)c4)c3Cl)c2Cl)cc(F)c1CNC[C@@H]1CCC(=O)N1 [Compound 12, (5S,5′S)-5,5′-(((((3,3′-dichloro-[4,4′-bipyridine]-2,2′-diyl)bis(2-fluoro-6-methoxy-4,1-phenylene))bis(methylene))bis(azanediyl))bis(methylene))bis(pyrrolidin-2-one)] | 0.0001 µM | 0.0671 µM | – | –
10 | COc1cc(-c2nccc(-c3ccnc(-c4ccc5c(CNC[C@@H]6CCC(=O)N6)cn(C)c5c4)c3Cl)c2Cl)ccc1CNC[C@@H]1CCC(=O)N1 [Compound 14, (S)-5-(((4-(3,3′-dichloro-2′-(1-methyl-3-(((((S)-5-oxopyrrolidin-2-yl)methyl)amino)methyl)-1H-indol-6-yl)-[4,4′-bipyridin]-2-yl)-2-methoxybenzyl)amino)methyl)pyrrolidin-2-one] | 0.0006 µM | 0.165 µM | – | –
11 | Cn1cc(CNC[C@@H]2CCC(=O)N2)c2ccc(-c3nccc(-c4ccnc(-c5ccc6c(CNC[C@@H]7CCC(=O)N7)cn(C)c6c5)c4Cl)c3Cl)cc21 [Compound 15, (5S,5′S)-5,5′-(((((3,3′-dichloro-[4,4′-bipyridine]-2,2′-diyl)bis(1-methyl-1H-indole-6,3-diyl))bis(methylene))bis(azanediyl))bis(methylene))bis(pyrrolidin-2-one)] | 0.107 µM | 10 µM | – | –
12 | COc1cc(-c2nccc(-c3ccnc(-c4cnc5c(CNC[C@@H]6CCC(=O)N6)cn(C)c5c4)c3Cl)c2Cl)ccc1CNC[C@@H]1CCC(=O)N1 [Compound 16, (S)-5-(((4-(3,3′-dichloro-2′-(1-methyl-3-(((((S)-5-oxopyrrolidin-2-yl)methyl)amino)methyl)-1H-pyrrolo[3,2-b]pyridin-6-yl)-[4,4′-bipyridin]-2-yl)-2-methoxybenzyl)amino)methyl)pyrrolidin-2-one] | 0.001 µM | 0.355 µM | – | –
13 | COc1cc(-c2nccc(-c3cccc(-c4ccc5c(CNC[C@@H]6CCC(=O)N6)cn(C)c5n4)c3Cl)c2Cl)ccc1CNC[C@@H]1CCC(=O)N1 [Compound 17, (S)-5-((((6-(2-chloro-3-(3-chloro-2-(3-methoxy-4-(((((S)-5-oxopyrrolidin-2-yl)methyl)amino)methyl)phenyl)pyridin-4-yl)phenyl)-1-methyl-1H-pyrrolo[2,3-b]pyridin-3-yl)methyl)amino)methyl)pyrrolidin-2-one] | 0.0024 µM | 0.0292 µM | – | –
14 | COc1cc(-c2nccc(-c3cccc(-c4cc5c(c(OC)c4)CN(C[C@@H]4CCC(=O)N4)CC5)c3Cl)c2Cl)ccc1CNC[C@@H]1CCC(=O)N1 [Compound 18, (S)-5-((6-(2-chloro-3-(3-chloro-2-(3-methoxy-4-(((((S)-5-oxopyrrolidin-2-yl)methyl)amino)methyl)phenyl)pyridin-4-yl)phenyl)-8-methoxy-3,4-dihydroisoquinolin-2(1H)-yl)methyl)pyrrolidin-2-one] | 0.0398 µM | 0.0756 µM | – | –
15 | COc1nc(-c2cccc(-c3ccnc(-c4cnc5c(CNC6CCN(C(C)=O)CC6)cn(C)c5c4)c3Cl)c2Cl)ccc1CNC[C@@H]1CCC(=O)N1 [Compound 21, (S)-5-((((6-(3-(2-(3-(((1-acetylpiperidin-4-yl)amino)methyl)-1-methyl-1H-pyrrolo[3,2-b]pyridin-6-yl)-3-chloropyridin-4-yl)-2-chlorophenyl)-2-methoxypyridin-3-yl)methyl)amino)methyl)pyrrolidin-2-one] | 0.0001 µM | 0.0758 µM | – | –
16 | COc1nc(-c2cccc(-c3ccnc(-c4cnc5c(CNC[C@@H]6CCO6)cn(C)c5c4)c3Cl)c2Cl)ccc1CNC[C@@H]1CCC(=O)N1 [Compound 22, (S)-5-((((6-(2-chloro-3-(3-chloro-2-(1-methyl-3-(((((S)-oxetan-2-yl)methyl)amino)methyl)-1H-pyrrolo[3,2-b]pyridin-6-yl)pyridin-4-yl)phenyl)-2-methoxypyridin-3-yl)methyl)amino)methyl)pyrrolidin-2-one] | 0.0003 µM | 0.135 µM | – | –
17 | COc1cc(-c2nccc(-c3cccc(-c4ccc(CNC[C@@H]5CCC(=O)N5)c(OC)n4)c3Cl)c2Cl)cnc1CNC[C@@H]1CCC(=O)N1 [Compound 23, (S)-5-((((6-(2-chloro-3-(3-chloro-5′-methoxy-6′-(((((S)-5-oxopyrrolidin-2-yl)methyl)amino)methyl)-[2,3′-bipyridin]-4-yl)phenyl)-2-methoxypyridin-3-yl)methyl)amino)methyl)pyrrolidin-2-one] | 0.0001 µM | 0.0363 µM | – | –
18 | COc1nc(-c2ccnc(-c3cccc4c3CC[C@@H]4Oc3nc(OC)c(CNC[C@@H]4CCC(=O)N4)cc3C(F)(F)F)c2Cl)ccc1CNC1CCN(C(C)=O)CC1 [Example 544, (S)-5-((((6-(((S)-4-(5-(((1-acetylpiperidin-4-yl)amino)methyl)-3′-chloro-6-methoxy-[2,4′-bipyridin]-2′-yl)-2,3-dihydro-1H-inden-1-yl)oxy)-2-methoxy-5-(trifluoromethyl)pyridin-3-yl)methyl)amino)methyl)pyrrolidin-2-one] | 0.0008 µM | – | – | –
19 | COc1cc(-c2nccc(-c3cccc(NC(=O)c4ccc(CNC[C@@H]5CCC(=O)N5)cn4)c3C)c2Cl)ccc1CNC1CCOCC1 [Example 748, (S)—N-(3-(3-chloro-2-(3-methoxy-4-(((tetrahydro-2H-pyran-4-yl)amino)methyl)phenyl)pyridin-4-yl)-2-methylphenyl)-5-((((5-oxopyrrolidin-2-yl)methyl)amino)methyl)picolinamide] | – | 1 µM | – | –
20 | COc1cc(-c2nccc(-c3cccc(NC(=O)c4ccc(CNC[C@@H]5CCC(=O)N5)cn4)c3C)c2Cl)ccc1CNCCO [Example 750, (S)—N-(3-(3-Chloro-2-(4-(((2-hydroxyethyl)amino)methyl)-3-methoxyphenyl)pyridin-4-yl)-2-methylphenyl)-5-((((5-oxopyrrolidin-2-yl)methyl)amino)methyl)picolinamide] | – | 0.703 µM | – | –
21 | CNCc1ccc(C(=O)Nc2cccc(-c3ccnc(-c4ccc(CNC[C@@H]5CCC(=O)N5)c(OC)c4)c3Cl)c2Cl)nc1 [Example 751, (S)—N-(2-Chloro-3-(3-chloro-2-(3-methoxy-4-((((5-oxopyrrolidin-2-yl)methyl)amino)methyl)phenyl)pyridin-4-yl)phenyl)-5-((methylamino)methyl)picolinamide] | – | 0.00568 µM | – | –
22 | COc1cc(-c2nccc(-c3cccc(NC(=O)c4ccc(C(=O)O)cn4)c3Cl)c2Cl)ccc1CNC[C@@H]1CCC(=O)N1 [Example 752, (S)-6-((2-Chloro-3-(3-chloro-2-(3-methoxy-4-((((5-oxopyrrolidin-2-yl)methyl)amino)methyl)phenyl)pyridin-4-yl)phenyl)carbamoyl)nicotinic acid] | – | 1.03 µM | – | –
23 | COc1cc(-c2nccc(-c3cccc(NC(=O)c4ccc(CNCCO)cn4)c3Cl)c2Cl)ccc1CN1CC2(CNC(=O)C2)C1 [Example 754, N-(2-Chloro-3-(3-chloro-2-(3-methoxy-4-((7-oxo-2,6-diazaspiro[3.4]octan-2-yl)methyl)phenyl)pyridin-4-yl)phenyl)-5-(((2-hydroxyethyl)amino)methyl)picolinamide] | – | 0.0091 µM | – | –
